Measurements: patent US20090298915A1, “TOPICAL DRUG DELIVERY” (priority 2006, published 2009)

Columns and labels:
[1] = system: S91 Cloudman murine melanoma cells; assay: Pigmentation assay (melanin synthesis); format: cell-based; conditions: 5 days culture, 10^−8 M and 10^−6 M
Description: (§1) S91 Cloudman murine melanoma cells were cultured for 5 days in the presence or absence of αMSH compounds. All experiments were carried out in triplicate wells on three separate occasions. Following culture, cells were washed twice with PBS and then dissociated with cell dissociation solution (Sigma, UK). An aliquot of cells were counted using a haemocytometer, and the remaining cells pelleted by centrifugation prior to lysis of the pellet with 200 μl of 1M NaOH. Melanin concentrations were determined against a standard synthetic melanin dose range using a spectrophometric plate reader (emission 450-492 nm).

[2] = Ex vivo skin penetration, Franz diffusion chamber, mouse skin; format: in vitro ADME; conditions: fluorescein-labelled compounds, 10^−3 M, up to 3 hours
Source text: (§2) The penetration of the relevant compounds into mouse, pig and human skin was investigated using a Franz diffusion chamber system; this approach ensured a sealed system which prevented any leakage between the upper donor compartment and the lower receptor compartment. Circular full thickness skin samples (6 mm diameter) which had been cut with a punch biopsy blade were mounted into the diffusion chamber, with the stratum corneum facing upwards so that it was exposed to donor compartment, and with the receptor compartment filled with PBS. The compound under investigation was applied to the donor compartment so that it lay on the outer skin surface, and the chamber incubated at room temperature or at 37° C. for up to 3 hours. At the end of this incubation period, the remaining solution was removed from the upper compartment, and the skin washed three times with PBS. The skin was then bisected and half of it was snap frozen in liquid nitrogen for cryosectioning whereas the other half was fixed in 4% paraformaldehyde for 3 hours prior to paraffin blocking for cutting tissue sections. The skin sections were mounted on glass and visualised under fluorescent microscopy.
(§3) Penetration of αMSH into skin was examined using an ex-vivo mouse, pig and human skin model. […]

[3] = Ex vivo skin penetration, Franz diffusion chamber, human skin; format: in vitro ADME; conditions: fluorescein-labelled compounds, 10^−3 M, up to 3 hours
Source text: as §2, §3

[4] = Ex vivo skin penetration, Franz diffusion chamber, pig skin; format: in vitro ADME; conditions: fluorescein-labelled compounds, 10^−3 M, up to 3 hours
Source text: as §2, §3

B16F10 cells = assay: Transport into B16F10 cells, fluorescence and confocal microscopy; format: cell-based, murine; conditions: TyrPNA-PPL-fluo at 3×10^−5 M and at 10^−4 M
Description: Experiments to investigate the transport of each compound into cells in culture were performed at 3 hours and 24 hours. Cells were seeded (at 1×10^5 cells per well for 3 hours treatment or 5×10^4 cells per well for 24 hours treatment) on 1% (w/v) poly-L-lysine coated glass coverslips in 12 well plates and incubated overnight at 5% CO2 and 37° C.; poly-L-lysine coating of glass coverslips was employed to prevent the fluo-labelled PPL compounds adhering to the glass and causing background fluorescence. Cells were then washed with PBS, and incubated at 5% CO2 and 37° C. with the compound in the medium for 3 hours or 24 hours. The medium was subsequently removed and the cells washed twice with PBS, prior to fixation with 4% paraformaldehyde for 7 minutes, and then fixation was stopped with 50 mM ammonium chloride for 10 minutes. Cells were subsequently washed twice with PBS, and coverslips were mounted (with the cells facing downwards) onto a glass slide with vectashield, and the edges sealed with clear nail varnish to prevent drying. Fluorescence was detected by fluorescence microscopy and/or confocal microscopy. […]
Fluorescently-tagged compounds were used as noted above and intracellular fluorescence recorded as a measure of penetration.

[5] = system: B16F10 murine melanoma cells; assay: Pigmentation assay in alphaMSH-stimulated B16F10 cells; format: cell-based; conditions: B16F10, 48 hours, αMSH 10^−10 M, compound 10^−5 M
Description: as §1
B16F10 murine melanoma cells were cultured for 48 hours in the presence or absence of αMSH (10^−10 M) with or without TyrPNA or TyrASO and separately with or without TyrPNA-PPL or TyrASO-PPL. Pigmentation was assessed as described above.

Row | penetration into pig skin ex vivo [4] | Substance | melanin synthesis by melanoma cells, potency compared with αMSH [1] | penetration into mouse skin ex vivo [2] | penetration into human skin ex vivo [3] | penetration into B16F10 cells (intracellular fluorescence) (B16F10 cells) | darkening of the cell pellet induced by αMSH [5]
1 | did not penetrate into skin | Fluo-Ahx-SYSMEHFRWGKPV-NH2 [Fluo-MSH] | stimulated melanin synthesis by melanoma cells with similar potency to αMSH | did not penetrate into skin (except on a single occasion in mouse skin) | did not penetrate into skin |  | 
2 |  | TyrPNA-fluo: fluorescein-labelled TyrPNA, FIG. 8 (GAACATTTTCTCCTT; all peptide nucleic acid (PNA); further chemistry not fully specified) |  |  | did not penetrate into skin | did not penetrate into B16F10 cells | 
3 |  | TyrPNA: 15 mer antisense peptide nucleic acid (GAA CAT TTT CTC CTT; SEQ. ID no. 1) targeting murine tyrosinase, modified as in FIG. 7 (antisense GAACATTTTCTCCTT; all peptide nucleic acid (PNA); further chemistry not fully specified) [15 mer antisense peptide nucleic acid (GAA CAT TTT CTC CTT; ID no] |  |  |  |  | did not prevent the increased production of melanin
